Data on seven compounds can be found in patent publication EP1672365A1, “Means and methods for determining and/or influencing cellular transportation” (priority 2004, dated 2006).

Entries after “also recorded” stand apart in the source; their conditions may differ.

The target of data set [1] is T1, Bcrp1 (Mus musculus, UniProt Q7TMS5).
T1 sequence (Q7TMS5 1-657): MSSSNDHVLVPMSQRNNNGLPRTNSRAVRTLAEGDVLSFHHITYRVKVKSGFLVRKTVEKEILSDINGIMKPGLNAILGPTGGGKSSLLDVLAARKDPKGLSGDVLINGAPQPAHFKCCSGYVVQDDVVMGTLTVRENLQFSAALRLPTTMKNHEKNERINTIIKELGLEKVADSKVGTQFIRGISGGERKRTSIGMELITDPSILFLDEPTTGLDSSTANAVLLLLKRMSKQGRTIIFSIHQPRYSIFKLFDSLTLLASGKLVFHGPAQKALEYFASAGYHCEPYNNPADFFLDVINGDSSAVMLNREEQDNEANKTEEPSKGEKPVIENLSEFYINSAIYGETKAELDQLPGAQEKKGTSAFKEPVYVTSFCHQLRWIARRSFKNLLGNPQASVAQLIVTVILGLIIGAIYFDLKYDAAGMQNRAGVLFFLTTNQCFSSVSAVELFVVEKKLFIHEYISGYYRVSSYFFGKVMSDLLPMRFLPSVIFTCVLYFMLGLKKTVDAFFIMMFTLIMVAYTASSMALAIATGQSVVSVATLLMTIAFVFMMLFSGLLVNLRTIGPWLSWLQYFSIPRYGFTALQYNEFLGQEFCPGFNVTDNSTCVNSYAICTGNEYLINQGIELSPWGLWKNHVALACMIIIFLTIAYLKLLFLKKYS
As to the kind of experiment: Milk secretion of radiolabelled compounds after intravenous administration to lactating wild-type and Bcrp1-/- mice. The format is in vivo. The arrangement: Bcrp1 was detected primarily in the apical membrane of alveolar epithelial cells; from tissue; host or cells: mammary gland of lactating wild-type mice (Bcrp1-/- mice as control). The settings on record: for milk-to-plasma (M/P) ratio: lactating Bcrp1-/- mice; for milk-to-plasma (M/P) ratio / milk secretion in wild-type mice: 1 mg kg-1 intravenously, 30 min; for milk secretion in wild-type mice: lactating wild-type mice; for milk secretion in Bcrp1-/- compared to wild-type mice: lactating wild-type vs Bcrp1-/- mice.
Experimental: (§1) For intravenous drug administration, 5 µl drug solution per g body weight was injected into the tail vein of mice lightly anesthetised with methoxyflurane. Levels of radioactivity in plasma and milk were determined by liquid scintillation counting. Measurements of drug secretion into the milk were done in lactating dams with pups of approximately 10 days old. To stimulate milk secretion, oxytocin (200 µl of an 1 I.U. ml^-1 solution) was administered subcutaneously to lactating dams at 30 min before milk was collected. After intravenous administration of a drug, at the indicated time approximately 50 µl milk was collected from the 4th and 5th mammary glands by gentle vacuum suction. Immediately after milk collection, a small blood sample was collected from the tail.

Data set [2] has as its system Bcrp1. The data set can be described thus: Inhibition of Bcrp1-mediated milk secretion of topotecan by GF120918. The format is in vivo. Particulars: GF120918 250 mg/kg orally 2 hours before [14C]-topotecan 1 mg/kg i.v., lactating mice. As to the method: GF120918 was suspended at […] in water for injection and concentrated stock vehicle (1:1). The concentrated stock vehicle consisted of hydroxypropyl methyl cellulose (10 g/l) and 2% Tween 80 in water for injection. Animals were administered GF120918 (250 mg/kg; 10 µl of drug solution/g body weight) by gavage into the stomach at 2 hours before [^14C]-topotecan injection. [^14C]-topotecan (1 mg/kg) was injected into the vein of mice lightly anesthetized with methoxyflurane. To stimulate milk secretion, oxytocin (200 µl of 1 I.U./ml solution) was administered subcutaneously to lactating dams at 15 min before each milk sample was collected. At indicated time points (15, 30, 60 and 120 min after [^14C]-topotecan injection), 50 µl of milk was collected from the mammary glands by gentle vacuum suction. […] At the last sampling point, animals were sacrificed by cardiac puncture after anesthesia with methoxyflurane.

For data set [3], the target named is T1, Bcrp1. Particulars: in vivo.
Experimental: as §1
Samples were protected from light during the whole sample pre-treatment. Methanol (4 times the sample volume) was added to plasma and milk samples to precipitate proteins. […] The flow was 1.0 ml min^-1 and the detection was performed fluorimetrically using a FP920 Intelligent Fluorescence Detector (Jasco International Co. Ltd., Tokyo, Japan) with excitation/emission wavelengths set at 372/520 nm and 40 nm bandwidth. The capacity of the flow-cell of the fluorescence detector was 16 µl. […] Calibration curves were calculated by least-squares linear regression using a weighting factor of the reciprocal of the concentration.
The next data set has as its target T2, human BCRP (Homo sapiens, UniProt Q9UNQ0).
T2 construct: made in house; host or cells: Sf9 insect cells infected with BCRP-expressing baculovirus (membrane vesicles)
T2 sequence (Q9UNQ0 1-655): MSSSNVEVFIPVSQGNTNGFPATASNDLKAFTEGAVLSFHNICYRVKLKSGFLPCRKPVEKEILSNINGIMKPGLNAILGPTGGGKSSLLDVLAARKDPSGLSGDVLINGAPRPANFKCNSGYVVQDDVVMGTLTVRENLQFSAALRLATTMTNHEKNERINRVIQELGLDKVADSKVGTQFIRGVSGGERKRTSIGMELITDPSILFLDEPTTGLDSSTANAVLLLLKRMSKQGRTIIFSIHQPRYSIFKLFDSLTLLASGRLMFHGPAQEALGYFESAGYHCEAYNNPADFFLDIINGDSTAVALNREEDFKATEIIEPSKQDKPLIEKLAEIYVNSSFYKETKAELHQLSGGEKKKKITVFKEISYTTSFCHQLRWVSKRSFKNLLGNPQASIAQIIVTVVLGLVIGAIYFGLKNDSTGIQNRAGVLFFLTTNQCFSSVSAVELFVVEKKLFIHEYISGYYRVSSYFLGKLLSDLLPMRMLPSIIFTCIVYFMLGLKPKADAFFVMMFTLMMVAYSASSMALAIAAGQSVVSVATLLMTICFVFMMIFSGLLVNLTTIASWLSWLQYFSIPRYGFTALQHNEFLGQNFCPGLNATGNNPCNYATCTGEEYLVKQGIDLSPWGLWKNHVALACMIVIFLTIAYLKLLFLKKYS
The data set can be described thus: Vesicular transport assay (inside-out vesicle uptake, Sf9 membrane vesicles). The format is biochemical. The settings on record: 3H-riboflavin 0.25 µM, vesicles from Sf9 cells with BCRP-expressing or wild-type baculovirus, 4 mM ATP. On the procedure:
Vesicular transport assays were performed as described (Ozvegy, C., et al. Functional characterization of the human multidrug transporter, ABCG2, expressed in insect cells. Biochem. Biophys. Res. Commun. 285, 111-117 (2001); Zelcer, N., et al. Evidence for two interacting ligand-binding sites in human MRP2 (ABCC2). J. Biol. Chem. 278, 23538-23544 (2003)), using vesicles from Sf9 cells infected with BCRP-expressing or wild-type baculovirus, in the presence or absence of 4 mM ATP. ATP-dependent transport was calculated by subtracting the uptake in absence of ATP from that in the presence of ATP.

Take `Cn1c(N)nc2ncc(-c3ccccc3)cc21` [PhIP, 2-amino-1-methyl-6-phenylimidazo[4,5-b]pyridine]: on Bcrp1 [1], the “milk-to-plasma (M/P) ratio” value is given as “<= 1” and the “milk secretion in wild-type mice” value is reported as “highly concentrated into the milk”.
With `C[C@]12CC[C@H](OS(=O)(=O)O)CC1=CC[C@@H]1[C@@H]2CC[C@]2(C)C(=O)CC[C@@H]12` [DHEAS, dehydroepiandrosterone-sulfate], the “milk secretion in Bcrp1-/- compared to wild-type mice” value on Bcrp1 [1] is on record as “not affected”.
`COc1cc2c(cc1OC)CN(CCc1ccc(NC(=O)c3cccc4c(=O)c5cccc(OC)c5[nH]c34)cc1)CC2` [GF120918, N-{4-[2-(1,2,3,4-tetrahydro-6,7-dimethoxy-2-isoquinolinyl)-ethyl]-phenyl}-9,10-dihydro-5-methoxy-9-oxo-4-acridine carboxamide]: in the data set on Bcrp1 [2], the “effect on active secretion of topotecan into the milk by Bcrp1” value is recorded as “effectively reversed; also recorded: capable of at least in part inhibiting transport of topotecan into the milk”.
Take `Nc1nc2ncc(CNc3ccc(C(=O)N[C@@H](CCC(=O)O)C(=O)O)cc3)nc2c(=O)[nH]1` [folic acid]: the “milk secretion in Bcrp1-/- compared to wild-type mice” value at Bcrp1 [1] was “not affected”.
On the same count and under the same terms, as for vitamin B12, the entry is “not affected”.
For `Cc1cc2nc3c(=O)[nH]c(=O)nc-3n(C[C@H](O)[C@H](O)[C@H](O)CO)c2cc1C` [riboflavin], on Bcrp1 [3], the “decrease in the endogenous milk secretion” value worked out at 67 fold. For the same compound, the “ATP-dependent transport by human BCRP” value on human BCRP was “confirmed ATP-dependent transport”.
In the case of `CC[C@@]1(O)C(=O)OCc2c1cc1n(c2=O)Cc2cc3c(CN(C)C)c(O)ccc3nc2-1` [topotecan], on Bcrp1 [1], the “milk-to-plasma (M/P) ratio” value is listed as “<= 1” and the “milk secretion in wild-type mice” value was “highly concentrated into the milk”.
